Measured values reported in PubChem BioAssay AID540338 (Southern Research Specialized Biocontainment Screening …, 2011).
The source made the active and inactive calls.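 The calls were made as follows: active = cell viability below 70% of untreated cell signal at any tested dose; inactive = the rest.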

Tested on: HEp-2 viability, luminescence (CellTiter-Glo)
Assay: HEp-2 cell cytotoxicity, dose response, cytotoxicity control for RSV antiviral project, synthesized compounds, set 12 (AID 540338)

Structure (SMILES) | CC50
COCCCNC(=O)c1ccc(Cn2c(=O)c3ccccc3n(Cc3ccccn3)c2=O)cc1 | 16 µM
COCCCNC(=O)c1ccc(Cn2c(=O)c3ccccc3n(CC3CCCCC3)c2=O)cc1 | > 200 µM (inactive)
COCCCNC(=O)c1ccc(Cn2c(=O)c3ccccc3n(Cc3ccc(C)cc3)c2=O)cc1 | 69 µM
COCCCNC(=O)c1ccc(Cn2c(=O)c3ccccc3n(Cc3cccnc3)c2=O)cc1 | 8 µM
COCCCNC(=O)c1ccc(Cn2c(=O)c3ccccc3n(CCc3ccc(C)cc3)c2=O)cc1 | < 1.6 µM
COCCCNC(=O)c1ccc(Cn2c(=O)c3ccccc3n(CCc3ccc(Br)cc3)c2=O)cc1 | < 1.6 µM
COCCCNC(=O)c1ccc(Cn2c(=O)c3ccccc3n(CCc3ccc(C(F)(F)F)cc3)c2=O)cc1 | 116 µM
